Measurements taken from patent publication US7605272B2, “IGF-1R inhibitor” (Kyowa Hakko Kirin Co., Ltd., priority 2005, dated 2009).
Like-named read-outs stand apart in the source and are kept apart here.

Assays:
NCI-H929 = experiment: Cytostatic activity on human multiple myeloma cell line NCI-H929 (WST-1); type: cell-based; conditions: Homo sapiens, 10 μmol/L, 72 hours, read-out: cytostatic rate (%) H929 (10 μmol/L)
How it was run: (§1)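 Cytostatic rate is 100 minus % growth relative to DMSO-only wells (100%) and blank wells (0%), read by WST-1 absorbance at 450/690 nm after 2 h. Compound at 1 or 10 μmol/L final was applied for 72 h at 37 °C to cells seeded 24 h earlier.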

KMS-11 = experiment: Cytostatic activity on human multiple myeloma cell line KMS-11 (WST-1); type: cell-based; conditions: Homo sapiens, 10 μmol/L, 72 hours, read-out: cytostatic rate (%) KMS-11 (10 μmol/L)
How it was run: as §1

IGF-1R = target: T1, IGF-1R (Homo sapiens, UniProt P08069); experiment: IGF-1R inhibitory activity (kinase reaction, time-resolved fluoroimmunoassay); type: biochemical; conditions: test compound 10 μmol/L
T1 construct: purchased Upstate Co. 14-465
How it was run: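 Compounds were tested at a single 10 μmol/L concentration. Each was incubated with recombinant IGF-1R (200 μg/L), 10 mmol/L ATP, MgCl2/MnCl2 and Na3VO4 (pH 7.5) on immobilized poly(Glu-Tyr) peptide for 30 min at 24° C. Eu-anti-phosphotyrosine time-resolved fluorescence (340/615 nm) gave relative activity against no-compound and no-enzyme wells, reported as % inhibition.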

[1] = IGF-1R active recombinant enzyme

T1 sequence (P08069 959-1367 limits assumed): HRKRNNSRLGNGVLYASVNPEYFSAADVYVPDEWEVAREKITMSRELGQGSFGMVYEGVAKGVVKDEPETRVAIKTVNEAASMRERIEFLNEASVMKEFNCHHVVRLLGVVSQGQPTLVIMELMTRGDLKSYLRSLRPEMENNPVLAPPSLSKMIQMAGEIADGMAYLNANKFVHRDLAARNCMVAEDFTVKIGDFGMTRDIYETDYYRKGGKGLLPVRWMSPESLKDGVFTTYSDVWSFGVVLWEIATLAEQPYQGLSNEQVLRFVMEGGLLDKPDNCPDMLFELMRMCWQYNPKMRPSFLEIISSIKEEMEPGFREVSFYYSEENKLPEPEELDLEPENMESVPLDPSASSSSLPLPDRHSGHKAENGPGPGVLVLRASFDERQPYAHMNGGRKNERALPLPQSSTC

SMILES | inhibition at 10 µM (NCI-H929; NCI-H929, 72 h) | inhibition at 10 µM (KMS-11; KMS-11, 72 h) | inhibition at 10 µM (IGF-1R) | inhibition at 10 µM (NCI-H929; NCI-H929) | inhibition at 10 µM (KMS-11; KMS-11) | inhibition at 10 µM (IGF-1R; [1])
N#Cc1ccc(C(=O)Nc2ccccc2/C=C/c2n[nH]c3ccccc23)cc1 [Compound 83, (E)-4-cyano-N-{2-[2-(1H-indazol-3-yl)vinyl]phenyl}benzamide] | 114% | 107% | 96.3% |  |  | 
Nc1ccc(C(=O)Nc2ccccc2/C=C/c2n[nH]c3ccccc23)c(Cl)c1 [Compound 84, (E)-4-amino-2-chloro-N-{2-[2-(1H-indazol-3-yl)vinyl]phenyl}benzamide] | 113% | 107% | 100% |  |  | 
CC(=O)N1CCN(C(=O)c2ccc(/C=C/c3n[nH]c4ccccc34)c(NC(=O)Cc3cccs3)c2)CC1 [Compound 89, (E)-N-{5-(4-acetylpiperazin-1-ylcarbonyl)-2-[2-(1H-indazol-3-yl)vinyl]phenyl}-2-(thiophen-2-yl)acetamide] | 114% | 138% | 98.4% |  |  | 
CC(=O)N1CCN(C(=O)c2ccc(/C=C/c3n[nH]c4ccccc34)c(NC(=O)c3cc4ccccc4s3)c2)CC1 [Compound 90, (E)-N-{5-(4-acetylpiperazin-1-ylcarbonyl)-2-[2-(1H-indazol-3-yl)vinyl]phenyl}benzo[b]thiophene-2-carboxamide] | 114% | 136% | 97% |  |  | 
CC(=O)N1CCN(C(=O)c2ccc(/C=C/c3n[nH]c4ccccc34)c(NC(=O)c3cccn3C)c2)CC1 [Compound 91, (E)-N-{5-(4-acetylpiperazin-1-ylcarbonyl)-2-[2-(1H-indazol-3-yl)vinyl]phenyl}-1-methyl-1H-pyrrole-2-carboxamide] | 115% | 144% | 98.7% |  |  | 
COc1cccc(/C=C/c2n[nH]c3ccccc23)c1NC(=O)c1sccc1C [Compound 94, (E)-N-{2-[2-(1H-indazol-3-yl)vinyl]-6-methoxyphenyl}-3-methylthiophene-2-carboxamide] | 125% | 143% | 95.4% |  |  | 
COc1cc(/C=C/c2n[nH]c3ccccc23)c(NC(=O)c2sccc2C)cc1OC [Compound 95, (E)-N-{2-[2-(1H-indazol-3-yl)vinyl]-4,5-dimethoxyphenyl}-3-methylthiophene-2-carboxamide] | 121% | 138% | 97.2% |  |  | 
COc1cc(/C=C/c2n[nH]c3ccccc23)c(NC(=O)c2cccn2C)cc1OC [Compound 96, (E)-N-{2-[2-(1H-indazol-3-yl)vinyl]-4,5-dimethoxyphenyl}-1-methyl-1H-pyrrole-2-carboxamide] | 117% | 117% | 100% |  |  | 
Cc1ccsc1C(=O)Nc1cc(N(C)C)ccc1/C=C/c1n[nH]c2ccccc12 [Compound 105, (E)-N-{5-dimethylamino-2-[2-(1H-indazol-3-yl)vinyl]phenyl}-3-methylthiophene-2-carboxamide] | 120% | 120% | 94.8% |  |  | 
CN(C)c1ccc(/C=C/c2n[nH]c3ccccc23)c(NC(=O)c2cccn2C)c1 [Compound 107, (E)-N-{5-dimethylamino-2-[2-(1H-indazol-3-yl)vinyl]phenyl}-1-methyl-1H-pyrrole-2-carboxamide] | 119% | 119% | 92.8% |  |  | 
Cc1ccsc1C(=O)Nc1ccc(O)cc1/C=C/c1n[nH]c2ccccc12 [Compound 110, (E)-N-{4-hydroxy-2-[2-(1H-indazol-3-yl)vinyl]phenyl}-3-methylthiophene-2-carboxamide] | 116% | 118% | 96.3% |  |  | 
Cc1ccsc1C(=O)Nc1cc(C(=O)N2CCC(N)CC2)ccc1/C=C/c1n[nH]c2ccccc12 [Compound 111, (E)-N-{5-(4-aminopiperidin-1-ylcarbonyl)-2-[2-(1H-indazol-3-yl)vinyl]phenyl}-3-methylthiophene-2-carboxamide] | 120% | 112% | 98.1% |  |  | 
Cc1ccsc1C(=O)Nc1cc(C(=O)N2CCCC2)ccc1/C=C/c1n[nH]c2ccccc12 [Compound 116, (E)-N-{2-[2-(1H-indazol-3-yl)vinyl]-5-(pyrrolidin-1-ylcarbonyl)phenyl}-3-methylthiophene-2-carboxamide] | 118% | 114% | 103% |  |  | 
Cc1ccsc1C(=O)Nc1cc(C(=O)N(C)C)ccc1/C=C/c1n[nH]c2ccccc12 [Compound 117, (E)-N-{5-(N,N-dimethylcarbamoyl)-2-[2-(1H-indazol-3-yl)vinyl]phenyl}-3-methylthiophene-2-carboxamide] | 119% | 115% | 101% |  |  | 
Cc1ccsc1C(=O)Nc1cc(C(=O)NC2CC2)ccc1/C=C/c1n[nH]c2ccccc12 [Compound 118, (E)-N-{5-(N-cyclopropylcarbamoyl)-2-[2-(1H-indazol-3-yl)vinyl]phenyl}-3-methylthiophene-2-carboxamide] | 116% | 114% | 102% |  |  | 
Cc1ccsc1C(=O)Nc1cc(C(=O)N2CCC3(CC2)OCCO3)ccc1/C=C/c1n[nH]c2ccccc12 [Compound 119, (E)-N-{5-(1,4-dioxa-8-azaspiro[4,5]decane-8-carbonyl)-2-[2-(1H-indazol-3-yl)vinyl]phenyl}-3-methylthiophene-2-carboxamide] |  |  | 102% | 117% | 116% | 
COC1CCN(C(=O)c2ccc(/C=C/c3n[nH]c4ccccc34)c(NC(=O)c3sccc3C)c2)CC1 [Compound 120, (E)-N-{2-[2-(1H-indazol-3-yl)vinyl]-5-(4-methoxypiperidin-1-ylcarbonyl)phenyl}-3-methylthiophene-2-carboxamide] | 116% | 114% | 97.5% |  |  | 
Nc1ccc(C(=O)Nc2cc3c(cc2/C=C/c2n[nH]c4ccccc24)OCO3)s1 [Compound 132, (E)-5-amino-N-{6-[2-(1H-indazol-3-yl)vinyl]benzo[1,3]dioxol-5-yl}thiophene-2-carboxamide] | 108% | 112% | 98% |  |  | 
OCCOc1ccccc1/C=C/c1n[nH]c2ccccc12 [Compound 134, (E)-2-{2-[2-(1H-indazol-3-yl)vinyl]phenoxy}ethanol] | 92.8% | 52.5% |  |  |  | 93.4%
N#Cc1ccccc1/C=C/c1n[nH]c2ccccc12 [Compound 136, (E)-2-[2-(1H-indazol-3-yl)vinyl]benzonitrile] | 87.7% | 38.4% |  |  |  | 85.3%
C(=C\c1n[nH]c2ccccc12)/c1ccccc1N1CCOCC1 [Compound 137, (E)-3-[2-{2-(morpholin-4-yl)phenyl]vinyl}-1H-indazole] | 114% | 51.2% |  |  |  | 94.3%
O=C(Nc1nccs1)c1ccccc1/C=C/c1n[nH]c2ccccc12 [Compound 138, (E)-2-[2-(1H-indazol-3-yl)vinyl]-N-(thiazol-2-yl)benzamide] | 114% | 101% |  |  |  | 97.2%
C(=C\c1n[nH]c2ccccc12)/c1ccccc1OCCc1ccccc1 [Compound 140, (E)-3-{2-[2-(2-phenylethyloxy)phenyl]vinyl}-1H-indazole] | 104% | 58.9% |  |  |  | 92.1%
O=C(NCc1cccs1)c1ccccc1/C=C/c1n[nH]c2ccccc12 [Compound 141, (E)-2-[2-(1H-indazol-3-yl)vinyl]-N-(thiophen-2-ylmethyl)benzamide] | 114% | 117% |  |  |  | 97.1%
O=C(Nc1cccnc1)c1ccccc1/C=C/c1n[nH]c2ccccc12 [Compound 142, (E)-2-[2-(1H-indazol-3-yl)vinyl]-N-(pyridin-3-yl)benzamide] | 104% | 84.9% |  |  |  | 92.8%
O=C(Nc1nncs1)c1ccccc1/C=C/c1n[nH]c2ccccc12 [Compound 145, (E)-2-[2-(1H-indazol-3-yl)vinyl]-N-([1,3,4]thiadiazol-2-yl)benzamide] | 126% | 116% |  |  |  | 93.4%
O=C1c2ccccc2C(=O)N1c1cc2c(cc1/C=C/c1n[nH]c3ccccc13)OCO2 [Compound 151, (E)-N-2-{6-[2-(1H-indazol-3-yl)vinyl]benzo[1,3]dioxol-5-yl}isoindole-1,3-dione] | 104% | 83.2% |  |  |  | 100%
Cc1cc(C(=O)Nc2ccccc2/C=C/c2n[nH]c3ccccc23)ccc1N [Compound 158, (E)-4-amino-N-{2-[2-(1H-indazol-3-yl)vinyl]phenyl}-3-methylbenzamide] | 113% | 108% |  |  |  | 99.5%
O=C1c2ccccc2C(=O)N1c1ccccc1/C=C/c1n[nH]c2ccccc12 [Compound 159, (E)-2-{2-[2-(1H-indazol-3-yl)vinyl]phenyl}isoindole-1,3-dione] | 104% | 75.5% |  |  |  | 99.9%
